Experimental data: ChEMBL document CHEMBL1124016, “Antihypertensive activity in a series of 1-piperazino-3-phenylindans with potent 5-HT2-antagonistic activity” (J Med Chem, 1988)

Legend:
[1] = target: Serotonin 2 (5-HT2) receptor (Rattus norvegicus, UniProt P30994+P08909+P14842); test: Inhibition of [3H]spiperone binding to 5-hydroxytryptamine 2 receptor from rat cortical membranes; assay type: cell membranes, Membrane
[2] = target: T1, Adrenergic receptor alpha-1 (Rattus norvegicus, UniProt P15823+P23944+P43140); test: Inhibition of [3H]prazosin binding to alpha-1 adrenergic receptor from rat cortical membranes; assay type: cell membranes, Membrane
T1 sequence (P15823 whole entry): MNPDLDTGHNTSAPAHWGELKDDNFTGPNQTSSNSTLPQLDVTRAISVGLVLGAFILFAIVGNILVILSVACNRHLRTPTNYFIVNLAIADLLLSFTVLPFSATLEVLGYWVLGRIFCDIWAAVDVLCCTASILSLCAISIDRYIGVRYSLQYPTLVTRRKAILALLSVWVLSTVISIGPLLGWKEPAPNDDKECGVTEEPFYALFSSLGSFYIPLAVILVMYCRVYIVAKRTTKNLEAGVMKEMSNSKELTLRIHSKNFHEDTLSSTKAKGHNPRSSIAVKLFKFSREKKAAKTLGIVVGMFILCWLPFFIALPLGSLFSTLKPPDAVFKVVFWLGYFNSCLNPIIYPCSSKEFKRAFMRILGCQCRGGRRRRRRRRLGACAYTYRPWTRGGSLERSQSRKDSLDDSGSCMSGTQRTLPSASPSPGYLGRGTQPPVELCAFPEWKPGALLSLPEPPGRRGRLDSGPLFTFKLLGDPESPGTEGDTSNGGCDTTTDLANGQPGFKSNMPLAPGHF
T1 sequence (P23944 whole entry): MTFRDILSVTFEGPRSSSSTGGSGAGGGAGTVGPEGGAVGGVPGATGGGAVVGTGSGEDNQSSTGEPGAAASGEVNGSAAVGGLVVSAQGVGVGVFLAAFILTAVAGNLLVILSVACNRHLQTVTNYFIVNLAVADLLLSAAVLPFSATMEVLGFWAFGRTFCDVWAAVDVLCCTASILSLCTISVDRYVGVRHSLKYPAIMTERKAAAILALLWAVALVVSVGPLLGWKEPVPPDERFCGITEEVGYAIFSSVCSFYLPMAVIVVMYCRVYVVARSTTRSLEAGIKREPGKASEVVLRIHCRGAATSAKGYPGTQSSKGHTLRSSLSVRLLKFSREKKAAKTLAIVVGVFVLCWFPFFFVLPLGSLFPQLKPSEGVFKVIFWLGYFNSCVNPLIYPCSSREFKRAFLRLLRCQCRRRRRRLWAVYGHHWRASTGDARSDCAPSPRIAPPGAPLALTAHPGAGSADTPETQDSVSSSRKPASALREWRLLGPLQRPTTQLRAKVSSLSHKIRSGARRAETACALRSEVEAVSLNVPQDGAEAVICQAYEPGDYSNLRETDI
T1 sequence (P43140 whole entry): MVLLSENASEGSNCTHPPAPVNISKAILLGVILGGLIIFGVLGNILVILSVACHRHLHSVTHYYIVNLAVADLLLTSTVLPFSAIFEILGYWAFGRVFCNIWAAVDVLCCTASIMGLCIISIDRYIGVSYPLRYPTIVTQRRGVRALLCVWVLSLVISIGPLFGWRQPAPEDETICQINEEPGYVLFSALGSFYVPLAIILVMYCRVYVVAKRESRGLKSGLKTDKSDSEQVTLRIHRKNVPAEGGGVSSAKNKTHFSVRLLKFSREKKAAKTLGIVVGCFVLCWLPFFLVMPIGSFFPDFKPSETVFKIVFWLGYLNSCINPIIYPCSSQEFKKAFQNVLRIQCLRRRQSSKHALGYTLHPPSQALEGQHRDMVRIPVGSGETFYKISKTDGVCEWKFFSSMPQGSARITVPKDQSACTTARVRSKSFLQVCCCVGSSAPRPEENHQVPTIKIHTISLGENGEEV

D(2) dopamine receptor = D(2) dopamine receptor (Rattus norvegicus, UniProt P61169); test: Inhibition of [3H]spiperone binding to Dopamine receptor D2 from rat striatal membranes; assay type: cell membranes, Membrane
Chain of D(2) dopamine receptor (P61169 whole entry): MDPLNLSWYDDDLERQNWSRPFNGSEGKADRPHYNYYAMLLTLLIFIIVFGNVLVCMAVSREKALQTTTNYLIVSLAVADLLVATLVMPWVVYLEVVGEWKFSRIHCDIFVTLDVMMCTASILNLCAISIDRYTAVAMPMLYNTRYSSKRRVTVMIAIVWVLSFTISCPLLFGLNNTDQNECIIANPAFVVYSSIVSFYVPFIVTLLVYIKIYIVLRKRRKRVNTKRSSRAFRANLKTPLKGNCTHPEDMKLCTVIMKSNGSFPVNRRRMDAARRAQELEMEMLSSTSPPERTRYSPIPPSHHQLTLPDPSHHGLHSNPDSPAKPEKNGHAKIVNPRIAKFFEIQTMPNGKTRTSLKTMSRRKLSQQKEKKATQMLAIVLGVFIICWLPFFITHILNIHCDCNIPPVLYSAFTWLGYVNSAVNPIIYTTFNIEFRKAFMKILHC

Mus musculus = species on record: Mus musculus; test: Inhibition of methyl phenidate induced stereotyped gnawing in mice; assay type: functional
Rattus norvegicus [3] = test: Inhibition of 5-HT induced pressor response in pithed rats, after intravenous administration of 0.02 mg/kg; assay type: functional
Rattus norvegicus [4] = test: Inhibition of phenylephrine induced pressor response in pithed rats (following i.v. administration of […]); assay type: functional; conditions: route intravenous
Rattus norvegicus [5] = test: Inhibition of 5-HT induced pressor response in pithed rats, after intravenous administration, activity is expressed as ED50; assay type: functional
Rattus norvegicus [6] = species on record: Rattus norvegicus; test: Inhibition of L-5-HTP (L-5-hydroxytryptophan) induced head twitches in rat; assay type: functional
Rattus norvegicus [7] = test: Inhibition of 5-HT induced pressor response in pithed rats, after intravenous administration; assay type: functional
Rattus norvegicus [8] = test: Percent reduction of diastolic arterial blood pressure(DAP) in spontaneously hypertensive rat after 10 min at intraperitoneal administration of 5 mg/kg; assay type: functional
Rattus norvegicus [9] = test: Percent reduction of systolic arterial blood pressure(SAP) in spontaneously hypertensive rat after 10 min at intraperitoneal administration of 5 mg/kg; assay type: functional
Rattus norvegicus [10] = species on record: Rattus norvegicus; test: Ratio of phenylephrine ED50/ 5-HT ED50; assay type: functional
[11] = target: Sodium-dependent dopamine transporter (Rattus norvegicus, UniProt P23977); test: In vitro inhibition of [3H]dopamine uptake in rat brain synaptosomes; assay type: subcellular
Chain of Sodium-dependent dopamine transporter (P23977 whole entry): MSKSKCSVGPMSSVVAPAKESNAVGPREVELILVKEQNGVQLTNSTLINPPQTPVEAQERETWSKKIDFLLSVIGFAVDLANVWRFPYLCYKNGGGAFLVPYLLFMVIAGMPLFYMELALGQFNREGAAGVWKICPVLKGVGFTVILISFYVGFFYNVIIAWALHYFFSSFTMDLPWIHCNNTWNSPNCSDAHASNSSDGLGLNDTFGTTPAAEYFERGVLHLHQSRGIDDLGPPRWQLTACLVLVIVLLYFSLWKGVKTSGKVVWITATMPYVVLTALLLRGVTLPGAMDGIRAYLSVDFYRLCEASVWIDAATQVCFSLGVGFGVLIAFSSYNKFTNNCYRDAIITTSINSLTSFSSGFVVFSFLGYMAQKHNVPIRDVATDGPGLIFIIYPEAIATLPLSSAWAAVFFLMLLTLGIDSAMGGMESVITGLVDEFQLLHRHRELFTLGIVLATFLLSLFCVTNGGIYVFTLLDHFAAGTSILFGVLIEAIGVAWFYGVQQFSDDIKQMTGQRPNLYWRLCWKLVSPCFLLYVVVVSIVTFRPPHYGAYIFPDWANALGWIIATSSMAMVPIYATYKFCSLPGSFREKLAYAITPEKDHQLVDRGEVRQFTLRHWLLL

[12] = target: Norepinephrine transporter (Rattus norvegicus, UniProt Q9WTR4); test: In vitro inhibition of [3H]norepinephrine uptake in rat brain synaptosomes; assay type: subcellular
Chain of Norepinephrine transporter (Q9WTR4 whole entry): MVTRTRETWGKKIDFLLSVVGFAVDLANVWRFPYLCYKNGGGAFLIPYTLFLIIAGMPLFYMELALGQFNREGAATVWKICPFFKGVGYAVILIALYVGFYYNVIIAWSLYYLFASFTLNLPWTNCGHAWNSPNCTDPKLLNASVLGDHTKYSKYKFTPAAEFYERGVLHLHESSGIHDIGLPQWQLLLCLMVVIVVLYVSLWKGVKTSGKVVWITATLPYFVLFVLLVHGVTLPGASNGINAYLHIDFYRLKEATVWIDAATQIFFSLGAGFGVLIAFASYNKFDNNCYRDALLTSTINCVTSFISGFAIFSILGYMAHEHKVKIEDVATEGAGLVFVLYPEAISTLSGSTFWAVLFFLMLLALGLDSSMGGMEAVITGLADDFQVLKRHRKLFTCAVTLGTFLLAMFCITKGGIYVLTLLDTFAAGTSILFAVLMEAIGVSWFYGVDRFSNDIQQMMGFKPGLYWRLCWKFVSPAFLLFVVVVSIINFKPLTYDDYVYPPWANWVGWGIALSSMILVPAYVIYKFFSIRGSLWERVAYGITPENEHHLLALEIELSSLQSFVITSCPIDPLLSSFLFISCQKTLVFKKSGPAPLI

Rattus norvegicus [13] = test: Percent reduction of blood pressure in spontaneously hypertensive rat after 10 min at intraperitoneal administration of 5 mg/kg; assay type: functional
[14] = target: Sodium-dependent serotonin transporter (Rattus norvegicus, UniProt P31652); test: In vitro inhibition of [3H]5-HT transporter uptake in rat brain synaptosomes; assay type: subcellular
Chain of Sodium-dependent serotonin transporter (P31652 whole entry): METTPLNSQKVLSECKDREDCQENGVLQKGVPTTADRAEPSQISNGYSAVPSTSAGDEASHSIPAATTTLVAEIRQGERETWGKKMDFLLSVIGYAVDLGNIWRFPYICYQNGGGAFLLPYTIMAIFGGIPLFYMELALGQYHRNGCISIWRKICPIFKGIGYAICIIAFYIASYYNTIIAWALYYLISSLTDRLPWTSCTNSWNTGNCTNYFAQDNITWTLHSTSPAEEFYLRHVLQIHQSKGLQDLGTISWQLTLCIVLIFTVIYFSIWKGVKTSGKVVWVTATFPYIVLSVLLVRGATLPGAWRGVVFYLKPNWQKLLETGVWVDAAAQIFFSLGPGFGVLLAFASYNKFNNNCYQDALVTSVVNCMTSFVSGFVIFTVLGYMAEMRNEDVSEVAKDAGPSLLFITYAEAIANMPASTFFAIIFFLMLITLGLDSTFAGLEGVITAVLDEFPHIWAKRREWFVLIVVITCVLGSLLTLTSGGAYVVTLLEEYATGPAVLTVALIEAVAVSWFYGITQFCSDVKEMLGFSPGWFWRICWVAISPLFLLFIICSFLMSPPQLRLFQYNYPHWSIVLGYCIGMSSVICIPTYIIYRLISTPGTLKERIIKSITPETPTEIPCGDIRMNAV

[15] = Rattus norvegicus, read-out: ED50

| Structure (SMILES) | IC50 [1] [nM] | IC50 [2] [nM] | IC50 (D(2) dopamine receptor) [nM] | ED50 (Mus musculus) [µmol/kg] | Change (Rattus norvegicus [3]) [%] | Change (Rattus norvegicus [4]) [%] | ED50 (Rattus norvegicus [5]) [µmol/kg] | ED50 (Rattus norvegicus [6]) [µmol/kg] | ED50 (Rattus norvegicus [7]) [µmol/kg] | Reduction (Rattus norvegicus [8]) [%] | Reduction (Rattus norvegicus [9]) [%] | Ratio (Rattus norvegicus [10]) | IC50 [11] [nM] | IC50 [12] [nM] | ED50 (Rattus norvegicus [6]; [15]) [µmol/kg] | Reduction (Rattus norvegicus [13]) [%] | IC50 [14] [nM] | Increase (Rattus norvegicus [8]) [%] | Increase (Rattus norvegicus [9]) [%] |
| --- | --- | --- | --- | --- | --- | --- | --- | --- | --- | --- | --- | --- | --- | --- | --- | --- | --- | --- | --- |
| O.O=c1[nH]c2ccccc2c(=O)n1CCN1CCN(C2CC(c3ccc(F)cc3)c3ccc(F)cc32)CC1 (stereo unspecified) | 2.9 | 5.3 | 19 | > 79 | -52 | -57 | 0.43 | 2.3 | 0.032 | -46 | -29 | 13 | – | – | – | – | – | – | – |
| CN1CCN([C@H]2C[C@H](c3ccc(F)cc3)c3ccc(F)cc32)CC1 | 43 | 85 | – | 42 | -43 | 5 | – | – | – | – | – | – | 81 | 28 | 0.49 | -5 | 610 | – | – |
| CC(C)N1CCN(CCN2CCN(C3CC(c4ccc(F)cc4)c4ccc(F)cc43)CC2)C1=O.Cl.Cl (stereo unspecified) | 4.8 | 28 | 35 | > 73 | – | – | – | – | – | – | -5 | – | – | – | – | – | – | 0 | – |
| Cl.Cl.O=C1OCCN1CCN1CCN(C2CC(c3ccc(F)cc3)c3ccccc32)CC1 (stereo unspecified) | 130 | – | – | > 83 | – | – | – | – | – | -19 | -15 | – | – | – | – | – | – | – | – |
| CN1CCN([C@@H]2C[C@@H](c3ccc(F)cc3)c3ccc(F)cc32)CC1 | 4.9 | 9.3 | – | 2.5 | -79 | -48 | – | – | – | – | – | – | 1700 | 12000 | 0.13 | -28 | 3900 | – | – |
| O=C1NCCN1CCN1CCN(C2CC(c3ccc(F)cc3)c3ccc(F)cc32)CC1 (stereo unspecified) | 6.5 | 24 | 200 | > 47 | – | – | 2.6 | – | – | -19 | -13 | 153 | – | – | – | – | – | – | – |
| O.OC1=NCCN1CCN1CCN(C2CC(c3ccc(O)cc3)c3ccccc32)CC1 (stereo unspecified) | 310 | 560 | 4000 | > 98 | -5 | 22 | – | > 49 | – | -6 | -6 | – | – | – | – | – | – | – | – |
| OCCN1CCN(C2CC(c3ccc(F)cc3)c3ccccc32)CC1 (stereo unspecified) | 64 | 62 | 680 | > 118 | -15 | -12 | 3.4 | – | 0.33 | – | – | 10 | – | – | 0.46 | -27 | – | – | – |
| OCCN1CCN([C@@H]2C[C@@H](c3ccc(F)cc3)c3ccc(C(F)(F)F)cc32)CC1 (racemic) [TEFLUDAZINE] | 8.4 | 17 | 16 | 0.071 | – | – | 2.4 | – | 0.035 | -24 | -18 | 69 | – | – | – | – | – | – | – |
| O=C1NCCN1CCN1CCN(C2CC(c3ccc(F)cc3)c3ccccc32)CC1 (stereo unspecified) | 4.2 | 33 | 930 | > 98 | – | – | 3.1 | – | – | -43 | -33 | 129 | – | – | – | – | – | – | – |
| O=C1NCCN1CCN1CCN(C2CCc3ccccc32)CC1 (stereo unspecified) | 5100 | – | 62000 | > 127 | – | – | – | > 8 | – | – | – | – | – | – | – | – | – | 6 | 5 |
| CN1CCN(CCN2CCN([C@H]3C[C@H](c4ccc(F)cc4)c4ccc(F)cc43)CC2)C1=O | 410 | 1300 | 8500 | > 91 | -6 | 72 | – | > 45 | – | -1 | – | – | – | – | – | – | – | – | 1 |
| Cl.Cl.OC1=NCCN1CCCN1CCN(C2CC(c3ccc(F)cc3)c3ccc(F)cc32)CC1 (stereo unspecified) | 5.6 | 12 | 46 | 55 | – | – | 2.7 | 2 | – | -19 | -12 | 87 | – | – | – | – | – | – | – |
